Experimental data published in patent publication US20230113037A1 (Bayer Aktiengesellschaft, priority 2019, published 2023).
Read-outs that look alike come from different tables or passages of the source.

Key:
[1] = biological target: T1, AHR (Mus musculus, UniProt P30561); test: In vitro assay 3: antagonism in mouse cell line (AHR transactivation, firefly luciferase reporter, kynurenic acid prestimulated); type: cell-based
T1 sequence (P30561 1-848 P471L/N533S/M589L): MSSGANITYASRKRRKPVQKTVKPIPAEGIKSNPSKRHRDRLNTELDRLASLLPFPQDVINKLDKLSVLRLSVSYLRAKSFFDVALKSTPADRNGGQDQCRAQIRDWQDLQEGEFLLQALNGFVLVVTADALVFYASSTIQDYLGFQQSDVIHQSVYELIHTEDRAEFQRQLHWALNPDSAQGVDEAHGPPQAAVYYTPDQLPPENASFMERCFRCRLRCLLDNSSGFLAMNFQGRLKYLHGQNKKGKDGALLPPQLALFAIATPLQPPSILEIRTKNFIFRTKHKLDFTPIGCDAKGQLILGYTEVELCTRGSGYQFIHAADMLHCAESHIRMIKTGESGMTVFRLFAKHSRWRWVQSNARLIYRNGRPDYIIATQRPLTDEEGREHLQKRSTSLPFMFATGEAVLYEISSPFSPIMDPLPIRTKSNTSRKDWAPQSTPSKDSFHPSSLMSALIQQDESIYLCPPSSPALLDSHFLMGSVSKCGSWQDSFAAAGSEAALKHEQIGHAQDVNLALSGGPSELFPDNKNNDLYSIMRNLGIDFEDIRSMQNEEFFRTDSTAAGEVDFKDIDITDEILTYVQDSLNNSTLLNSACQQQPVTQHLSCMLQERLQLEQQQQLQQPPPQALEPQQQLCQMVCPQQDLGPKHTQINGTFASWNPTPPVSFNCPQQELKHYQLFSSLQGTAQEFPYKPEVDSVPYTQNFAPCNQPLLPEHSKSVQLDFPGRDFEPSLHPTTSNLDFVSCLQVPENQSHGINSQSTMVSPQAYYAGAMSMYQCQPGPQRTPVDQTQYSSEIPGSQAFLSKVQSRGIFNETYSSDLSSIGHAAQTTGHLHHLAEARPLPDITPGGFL
Procedure, shortened: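 Antagonism read as reduced firefly luciferase signal (SteadyGlo) from a stably transfected AHR/DRE reporter in a mouse line prestimulated with kynurenic acid. Data normalized to controls, the full-inhibition control being cells without kynurenic acid; multiple determinations given as average or median values.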

[2] = biological target: T2, AHR (Homo sapiens, UniProt P35869); test: In vitro assay 1: antagonism in human cell line (AHR transactivation, firefly luciferase reporter, kynurenic acid prestimulated); type: cell-based; conditions: AHR Antagonism Human IC50 [M]
T2 construct: U87 MG glioblastoma cells (ATCC #HTB-14) endogenously expressing AHR; endogenous in cells; host or cells: U87 MG glioblastoma cells (ATCC #HTB-14)
T2 sequence (P35869 11-848): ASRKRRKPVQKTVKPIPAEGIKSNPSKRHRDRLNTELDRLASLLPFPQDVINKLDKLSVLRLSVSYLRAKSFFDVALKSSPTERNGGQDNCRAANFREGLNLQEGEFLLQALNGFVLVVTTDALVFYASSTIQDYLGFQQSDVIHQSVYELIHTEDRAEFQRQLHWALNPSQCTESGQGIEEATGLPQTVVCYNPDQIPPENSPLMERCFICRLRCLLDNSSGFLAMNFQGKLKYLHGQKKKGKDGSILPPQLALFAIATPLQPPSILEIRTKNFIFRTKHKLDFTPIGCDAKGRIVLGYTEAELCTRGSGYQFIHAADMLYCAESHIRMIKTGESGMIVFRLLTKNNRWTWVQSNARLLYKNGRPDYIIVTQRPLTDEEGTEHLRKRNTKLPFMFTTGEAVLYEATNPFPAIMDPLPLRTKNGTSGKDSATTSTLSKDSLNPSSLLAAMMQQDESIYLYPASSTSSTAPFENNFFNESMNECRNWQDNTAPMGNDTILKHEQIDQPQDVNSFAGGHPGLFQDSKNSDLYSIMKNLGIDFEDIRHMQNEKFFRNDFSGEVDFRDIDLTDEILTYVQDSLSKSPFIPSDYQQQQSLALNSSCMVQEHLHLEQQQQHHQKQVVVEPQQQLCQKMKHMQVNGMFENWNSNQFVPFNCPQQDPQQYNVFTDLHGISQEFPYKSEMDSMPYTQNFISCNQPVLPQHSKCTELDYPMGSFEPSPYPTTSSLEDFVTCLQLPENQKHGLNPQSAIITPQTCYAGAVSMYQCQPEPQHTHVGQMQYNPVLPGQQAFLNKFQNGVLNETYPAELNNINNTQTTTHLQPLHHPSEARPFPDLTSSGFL
Procedure, shortened: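 Antagonism measured as loss of kynurenic acid-driven firefly luciferase from DRE reporter in stably transfected U87 MG cells; constitutive Renilla signal monitors cytotoxicity. Positive/negative control normalization, staurosporine 5 μM with 150 μM kynurenic acid as inhibition control; replicates given as mean or median.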

[3] = mouse Hepa 1c1c7 cells, 200 μM kynurenic acid, 20 hours, read-out: AHR Antagonism Mouse IC50

Row | IC50 [1, 3] [nM] | IC50 [2] [M] | SMILES | IC50 ([1]; read-out: AHR Antagonism Mouse IC50, mouse Hepa 1c1c7 cells, 200 μM kynurenic acid, 20 hours) [nM]
1 | 1.73 | 1.26e-09 | O=C1NCCCC[C@H]1Nc1nc2c(C(F)(F)F)cccc2c2nc(-c3cn(C4CC4)nc3C(F)F)nn12 [Example 743, (3R)-3-({2-[1-cyclopropyl-3-(difluoromethyl)-1H-pyrazol-4-yl]-7-(trifluoromethyl)[1,2,4]triazolo[1,5-c]quinazolin-5-yl}amino)azepan-2-one] | –
2 | 11.6 | 1.69e-09 | O=C1NCCCC[C@H]1Nc1nc2c(C(F)(F)F)cccc2c2nc(-c3cnn(CC4CCC4)c3)nn12 [Example 744, (3R)-3-({2-[1-(cyclobutylmethyl)-1H-pyrazol-4-yl]-7-(trifluoromethyl)[1,2,4]triazolo[1,5-c]quinazolin-5-yl}amino)azepan-2-one] | –
3 | 1.14 | 4.41e-09 | Cc1nn(C2CC2)c(C)c1-c1nc2c3cccc(C(F)(F)F)c3nc(N[C@@H]3CCCCNC3=O)n2n1 [Example 745, (3R)-3-{[2-(1-cyclopropyl-3,5-dimethyl-1H-pyrazol-4-yl)-7-(trifluoromethyl)[1,2,4]triazolo[1,5-c]quinazolin-5-yl]amino}azepan-2-one] | –
4 | 45.6 | 7.48e-09 | Cc1n[nH]cc1-c1nc2c3cccc(C(F)(F)F)c3nc(N[C@@H]3CCCCNC3=O)n2n1 [Example 746, (3R)-3-{[2-(3-methyl-1H-pyrazol-4-yl)-7-(trifluoromethyl)[1,2,4]triazolo[1,5-c]quinazolin-5-yl]amino}azepan-2-one] | –
5 | 0.656 | 3.9e-10 | Cc1nn(C(C)C)cc1-c1nc2c3cccc(C(F)(F)F)c3nc(N[C@@H]3CCCCNC3=O)n2n1 [Example 748, (3R)-3-({2-[3-methyl-1-(propan-2-yl)-1H-pyrazol-4-yl]-7-(trifluoromethyl)[1,2,4]triazolo[1,5-c]quinazolin-5-yl}amino)azepan-2-one] | –
6 | 2.12 | 1.54e-09 | CCc1nn(C2CC2)cc1-c1nc2c3cccc(C(F)(F)F)c3nc(N[C@@H]3CCCCNC3=O)n2n1 [Example 749, (3R)-3-{[2-(1-cyclopropyl-3-ethyl-1H-pyrazol-4-yl)-7-(trifluoromethyl)[1,2,4]triazolo[1,5-c]quinazolin-5-yl]amino}azepan-2-one] | –
7 | 1.41 | 3.56e-09 | Cc1nn(C)c(C)c1-c1nc2c3cccc(C(F)(F)F)c3nc(N[C@@H]3CCCCNC3=O)n2n1 [Example 750, (3R)-3-{[7-(trifluoromethyl)-2-(1,3,5-trimethyl-1H-pyrazol-4-yl)[1,2,4]triazolo[1,5-c]quinazolin-5-yl]amino}azepan-2-one] | –
8 | 54.7 | 1.47e-08 | CCCCNC(=O)[C@@H](C)Nc1nc2c(C(F)(F)F)cccc2c2nc(-c3cnn(C)c3)nn12 [Example 751, N-butyl-N^2-[2-(1-methyl-1H-pyrazol-4-yl)-7-(trifluoromethyl)[1,2,4]triazolo[1,5-c]quinazolin-5-yl]-D-alaninamid] | –
9 | 953 | 2.29e-07 | COc1cccc2c1nc(N[C@@H]1CCCCNC1=O)n1nc(-c3cnn(C)c3)nc21 [Example 752, (3R)-3-{[7-methoxy-2-(1-methyl-1H-pyrazol-4-yl)[1,2,4]triazolo[1,5-c]quinazolin-5-yl]amino}azepan-2-one] | –
10 | 40.6 | 9.89e-09 | CCn1cc(-c2nc3c4cccc(OC)c4nc(N[C@@H]4CCCCNC4=O)n3n2)c(C)n1 [Example 753, (3R)-3-{[2-(1-ethyl-3-methyl-1H-pyrazol-4-yl)-7-methoxy[1,2,4]triazolo[1,5-c]quinazolin-5-yl]amino}azepan-2-one] | –
11 | 292 | 7.97e-08 | CCn1cc(-c2nc3c4cccc(OC)c4nc(N[C@@H]4CCCCNC4=O)n3n2)cn1 [Example 754, (3R)-3-{[2-(1-ethyl-1H-pyrazol-4-yl)-7-methoxy[1,2,4]triazolo[1,5-c]quinazolin-5-yl]amino}azepan-2-one] | –
12 | 11700 | 4.49e-06 | COc1cccc2c1nc(N[C@@H]1CCCCNC1=O)n1nc(-c3cn(C)nn3)nc21 [Example 756, (3R)-3-{[7-methoxy-2-(1-methyl-1H-1,2,3-triazol-4-yl)[1,2,4]triazolo[1,5-c]quinazolin-5-yl]amino}azepan-2-one] | –
13 | 109 | 5.4e-08 | COc1cccc2c1nc(N[C@@H]1CCCCNC1=O)n1nc(-c3cnn(C4CC4)c3)nc21 [Example 757, (3R)-3-{[2-(1-cyclopropyl-1H-pyrazol-4-yl)-7-methoxy[1,2,4]triazolo[1,5-c]quinazolin-5-yl]amino}azepan-2-one] | –
14 | 19.6 | 1.35e-08 | COc1cccc2c1nc(N[C@@H]1CCCCNC1=O)n1nc(-c3cnn(C4CCC4)c3)nc21 [Example 758, (3R)-3-{[2-(1-cyclobutyl-1H-pyrazol-4-yl)-7-methoxy[1,2,4]triazolo[1,5-c]quinazolin-5-yl]amino}azepan-2-one] | –
15 | 25 | 7.68e-09 | CC(C)n1cc(-c2nc3c4cccc(OC(F)(F)F)c4nc(N[C@@H]4CCCCNC4=O)n3n2)cn1 [Example 759, (3R)-3-({2-[1-(propan-2-yl)-1H-pyrazol-4-yl]-7-(trifluoromethoxy)[1,2,4]triazolo[1,5-c]quinazolin-5-yl}amino)azepan-2-one] | –
16 | 10 | 3.6e-09 | CC(C)n1cc(-c2nc3c4cccc(C#N)c4nc(N[C@@H]4CCCCNC4=O)n3n2)cn1 [Example 760, 5-{[(3R)-2-oxoazepan-3-yl]amino}-2-[1-(propan-2-yl)-1H-pyrazol-4-yl][1,2,4]triazolo[1,5-c]quinazoline-7-carbonitrile] | –
17 | 9.93 | 3.11e-09 | N#Cc1cccc2c1nc(N[C@@H]1CCCCNC1=O)n1nc(-c3cnn(C4CC4)c3)nc21 [Example 761, 2-(1-cyclopropyl-1H-pyrazol-4-yl)-5-{[(3R)-2-oxoazepan-3-yl]amino}[1,2,4]triazolo[1,5-c]quinazoline-7-carbonitrile] | –
18 | 3.96 | 1.41e-09 | CCn1cc(-c2nc3c4cccc(C#N)c4nc(N[C@@H]4CCCCNC4=O)n3n2)c(C)n1 [Example 763, 2-(1-ethyl-3-methyl-1H-pyrazol-4-yl)-5-{[(3R)-2-oxoazepan-3-yl]amino}[1,2,4]triazolo[1,5-c]quinazoline-7-carbonitrile] | –
19 | 1.73 | 1.86e-09 | N#Cc1cccc2c1nc(N[C@@H]1CCCCNC1=O)n1nc(-c3cnn(C(F)F)c3)nc21 [Example 764, 2-[1-(difluoromethyl)-1H-pyrazol-4-yl]-5-{[(3R)-2-oxoazepan-3-yl]amino}[1,2,4]triazolo[1,5-c]quinazoline-7-carbonitrile] | –

Row | SMILES | IC50 [1, 3] [nM] | IC50 [2] [M] | IC50 ([1]; read-out: AHR Antagonism Mouse IC50, mouse Hepa 1c1c7 cells, 200 μM kynurenic acid, 20 hours) [nM]
20 | N#Cc1cccc2c1nc(N[C@@H]1CCCCNC1=O)n1nc(-c3cnn(C4CCC4)c3)nc21 [Example 762, 2-(1-cyclobutyl-1H-pyrazol-4-yl)-5-{[(3R)-2-oxoazepan-3-yl]amino}[1,2,4]triazolo[1,5-c]quinazoline-7-carbonitrile] | – | 2.44e-09 | 7.01
